Columns and labels:
[1] = biological target: T1, Atlantic cod estrogen receptor alpha (gmEra) LBD (Gadus morhua, UniProt U5ILH7); test: Luciferase reporter gene assay, gmEra agonism (estrogenic activity) in transfected COS-7 cells; settings: luciferase reporter gene assay
T1 sequence (U5ILH7 170-455): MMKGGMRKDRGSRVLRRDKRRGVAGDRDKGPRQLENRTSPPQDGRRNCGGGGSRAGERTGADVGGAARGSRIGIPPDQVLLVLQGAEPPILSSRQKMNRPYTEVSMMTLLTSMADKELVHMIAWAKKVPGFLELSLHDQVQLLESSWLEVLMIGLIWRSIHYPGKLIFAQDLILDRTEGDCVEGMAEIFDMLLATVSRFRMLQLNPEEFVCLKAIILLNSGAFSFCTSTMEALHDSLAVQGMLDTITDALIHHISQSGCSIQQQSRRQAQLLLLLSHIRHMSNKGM
Procedure: (§1) Ligand activation of gmEra and gmAra was studied with a luciferase reporter gene assay in COS-7 cells transiently transfected with the pCMX-GAL4(DBD)-gmEra(LBD) or pCMX-GAL4(DBD)-gmAra(LBD) plasmid by using the TransIT-LT1 reagent (TransIT-LT1 Transfection Reagent, Mirus). Cells were seeded into 96-well plates (5000 cells/well) and incubated for 24 h before cotransfection with the plasmid mixture (100 ng/well). The plasmid mixture contained GAL4-UAS luciferase reporter plasmid (tk-(MH100)x4 luc), the pCMX-GAL4(DBD)-gmEra(LBD) or pCMX-GAL4(DBD)-gmAra(LBD) receptor plasmids (2:1 reporter:receptor plasmid mass ratio), and a plasmid constitutively producing the β-galactosidase enzyme used for normalization of transfection efficiency (pCMV- β-Gal). […] The maximum DMSO/methanol concentrations in the exposure wells were 0.5% (v/v) in DMEM medium without phenol red (Sigma-Aldrich). After exposure, cells were lysed, and luciferase and beta-galactosidase activities were measured as luminescence and absorbance (420 nm) after the addition of luciferin and ONPG substrates, respectively, using an Enspire Multimode plate reader (PerkinElmer, Waltham, Massachusetts, USA).
Luciferase reporter gene assays were established with COS-7 cells transiently producing the LBD of gmEra (Figure S1) for evaluating the estrogenic potential of 12 bisphenols.
COS-7 cells transiently transfected with gmEra-LBD were exposed to EE2 (open circles), BPA (black circles), and 11 different BPA analogs (red squares and as indicated) at increasing concentrations. Responses are presented as mean fold activation in luciferase activity in comparison to solvent-exposed cells ± SEM from three independent experiments with three technical replicates (n = 9). The dose–response curves were created using nonlinear regression and the four parameter logistic fit in Graphpad Prism v.9. For comparison, the dose–response curve of BPA (black line) is indicated together with each individual BP tested (red line). *p < 0.05 versus solvent control by one-way ANOVA and Dunnett’s multiple comparison post hoc test.

[2] = biological target: T1, Atlantic cod estrogen receptor alpha (gmEra) LBD; test: Luciferase reporter gene assay, gmEra antagonism (antiestrogenic activity), coexposure with 3 nM EE2; type: cell-based; settings: coexposure with EE2 (3 nM, EC20)
Procedure: as §1
To investigate potential antiestrogenic effects, COS-7 cells transiently expressing gmEra LBD were exposed to the 12 bisphenols in binary mixtures with a fixed concentration of EE2 (3 nM, corresponding to EC20) (Figure 2 and Table 1).
The dose–response curves were created using nonlinear regression and the four-parameter logistic fit in Graphpad Prism v.9. *p < 0.05 versus solvent control by ANOVA and Dunnett’s multiple comparison post hoc test.

[3] = system: COS-7 cells; test: Cytotoxicity toward COS-7 cells (resazurin and CFDA-AM assays); settings: antiandrogenic reporter assay conditions (with testosterone); highest concentration used; 24 h
Source text: The cytotoxicity of the test compounds toward COS-7 cells was monitored by measuring the metabolic activity and membrane integrity through the conversion of resazurin and 5-carboxyfluorescein diacetate acetoxymethyl ester (CFDA-AM), respectively, as described previously by Pérez-Albaladejo et al.[54] […]
used as a negative control.
Figure S2. Assessing metabolic activity (resazurin) and cell membrane integrity (CFDA-AM) in COS-7 cells after BP exposures. COS-7 cells were exposed to three concentrations of each BP, as well as three concentrations […]
exposed at 37 °C and 5 % CO2 for 24 hours. Cytotoxicity is indicated by a reduction in the fluorescent signal (denoted as % Cell survival) relative to the solvent control (DMSO, dotted line) adjusted to 100 %. A reduction in cell viability exceeding 20 % is generally regarded as cytotoxic (indicated with a red dotted line) (ISO, I. 2009.
10993–5: 2009 Biological evaluation of medical devices—part 5: tests for in vitro cytotoxicity. International Organization for Standardization, Geneva.).
(1 picture or pasted object on this page, not shown here)

[4] = system: Atlantic cod precision-cut liver slices (PCLS); test: PCLS viability, lactate dehydrogenase (LDH) assay; type: cell-based, Atlantic cod (Gadus morhua); settings: 1µM; 96 h exposure
Procedure: To monitor the viability of the liver tissue, the release of LDH to the medium was quantified with an LDH Cytotoxicity Detection kit (Roche, Basel, Switzerland) according to the manufacturer’s protocol. Briefly, 50 μL of PCLS medium collected at the end of 96 h exposure was pipetted in triplicates into a clear 96-well plate, 50 μL of provided reagent mixture with the substrate was added, and the mixture was incubated for 10 min at room temperature in the dark. Absorbance was measured at 490 nm using an EnSpire plate reader (PerkinElmer, Waltham, USA), with 650 nm reference measurement. The LDH activity was normalized to the liver tissue weight, and statistical analysis was performed as described above for the ELISA data.
Figure S3. Assessment of PCLS tissue viability in BP-treated and DMSO control groups. Data points represent mean ± SD of fold-changes (normalized to DMSO) in LDH activity (in the culture medium) per mg of tissue (n = 5-6). For each compound, increasing concentrations used are arranged bottom up vertically (y-axis), […]
starting with DMSO control. […]
in comparisons between the different concentrations and the corresponding DMSO control. One treatment group […]
Figure S4. Sequence alignment of ligand binding domain of gmEra and hsERa. Alignment was constructed in Jalview using Clustal with default settings. […]

SMILES	gmEra activation, result in words [1]	antiestrogenic effect on gmEra, result in words [2]	cytotoxic concentration in COS-7 cells [3] [µM]	LDH activity in PCLS culture medium vs DMSO control, result in words [4]
CC(C)(c1ccc(OCC2CO2)cc1)c1ccc(OCC2CO2)cc1 (centres unmarked) [BADGE]	did not activate gmEra	no antiestrogenic effects	50	
Oc1ccc(C2(c3ccc(O)cc3)c3ccccc3-c3ccccc32)cc1 [BPFL]	did not activate gmEra			significantly lower LDH activity

Source: article PMC11325555, “Interaction of Bisphenol A and Its Analogs with Estrogen and Androgen Receptor from Atlantic Cod (Gadus morhua)” (Environmental Science & Technology, 2024)
